The record followed here is patent US20200131144A1, “AMINE OR (THIO)AMIDE CONTAINING LXR MODULATORS” (Phenex-FXR GmbH, priority 2017, published 2020).

In data set [1] the target is T1, GST-LXRβ ligand-binding domain (Homo sapiens, UniProt P55055, INS174Q).
T1 construct: amino acids 156-461; NP009052; made in house; host or cells: E. coli
T1 sequence (P55055 with tags, fused parts or gaps INS174Q limits assumed): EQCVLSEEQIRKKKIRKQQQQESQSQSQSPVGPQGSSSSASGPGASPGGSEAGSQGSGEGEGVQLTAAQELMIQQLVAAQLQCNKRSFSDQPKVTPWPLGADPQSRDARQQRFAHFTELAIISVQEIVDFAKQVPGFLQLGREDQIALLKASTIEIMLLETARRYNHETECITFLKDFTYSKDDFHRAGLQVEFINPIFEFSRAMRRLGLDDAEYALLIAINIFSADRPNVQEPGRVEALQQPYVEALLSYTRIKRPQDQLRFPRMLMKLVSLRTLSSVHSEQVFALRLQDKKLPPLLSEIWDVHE
The data set is described as follows: TR-FRETβ activity assay (NCoA3 coactivator peptide recruitment). Format: biochemical. The note with it: 1 μM 24(S)-25-epoxycholesterol as prestimulating agonist; inverse agonist unless *. The method, boiled down: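 Coactivator recruitment read as TR-FRET (ex 340, em 615 and 665 nm) after 1 h equilibration at 4° C, in triplicate. Mix held 76 nM GST-tagged LXRβ LBD (aa 156-461, E. coli), 400 nM biotin-NCoA3 peptide, Tb-cryptate anti-GST, streptavidin-XL665, 240 mM KCl buffer.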

The next data set deals with T2, LXRα full length (FL) (Homo sapiens, UniProt Q13133).
T2 construct: the full length (FL) proteins of LXRα (amino acids 1-447); NP005684; expressed in transfected cells; host or cells: HEK293
T2 sequence (Q13133 1-447): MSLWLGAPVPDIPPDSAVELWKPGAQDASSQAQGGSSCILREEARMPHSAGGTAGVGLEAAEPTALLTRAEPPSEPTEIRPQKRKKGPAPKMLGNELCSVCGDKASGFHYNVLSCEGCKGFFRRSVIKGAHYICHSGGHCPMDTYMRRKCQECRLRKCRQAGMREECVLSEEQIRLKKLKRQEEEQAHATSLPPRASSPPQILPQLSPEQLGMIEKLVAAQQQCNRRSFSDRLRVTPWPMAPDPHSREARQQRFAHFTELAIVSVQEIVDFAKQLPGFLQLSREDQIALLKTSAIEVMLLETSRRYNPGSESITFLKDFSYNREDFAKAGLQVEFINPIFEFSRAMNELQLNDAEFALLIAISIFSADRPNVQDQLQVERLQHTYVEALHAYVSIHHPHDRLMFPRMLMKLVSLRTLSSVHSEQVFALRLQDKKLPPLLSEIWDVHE
The data set is described as follows: LXR Gal4 reporter transient transfection assay, mammalian two-hybrid, FL-M2H Gal4α. Particulars: HEK293 cells; inverse agonist unless *. The format is cell-based. In short, it runs like this:
(§1)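 Mammalian two-hybrid read-out: interaction of LXRα or LXRβ (full length or ligand-binding domain, NFkB activation-domain fusions) with GAL4-fused SRC1 or NCoR domains drives GAL4-responsive firefly luciferase in HEK293 cells, normalised by Renilla cotransfection. Compounds given 4 h after transfection, ≤0.2% vehicle, cells lysed after 16 h.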

In another data set the target is T3, LXRβ full length (FL) (Homo sapiens, UniProt P55055, INS174Q).
T3 construct: the full length (FL) proteins of LXRα (amino acids 1-447); NP005684; NP009052; expressed in transfected cells; host or cells: HEK293
T3 sequence (P55055 with tags, fused parts or gaps INS174Q): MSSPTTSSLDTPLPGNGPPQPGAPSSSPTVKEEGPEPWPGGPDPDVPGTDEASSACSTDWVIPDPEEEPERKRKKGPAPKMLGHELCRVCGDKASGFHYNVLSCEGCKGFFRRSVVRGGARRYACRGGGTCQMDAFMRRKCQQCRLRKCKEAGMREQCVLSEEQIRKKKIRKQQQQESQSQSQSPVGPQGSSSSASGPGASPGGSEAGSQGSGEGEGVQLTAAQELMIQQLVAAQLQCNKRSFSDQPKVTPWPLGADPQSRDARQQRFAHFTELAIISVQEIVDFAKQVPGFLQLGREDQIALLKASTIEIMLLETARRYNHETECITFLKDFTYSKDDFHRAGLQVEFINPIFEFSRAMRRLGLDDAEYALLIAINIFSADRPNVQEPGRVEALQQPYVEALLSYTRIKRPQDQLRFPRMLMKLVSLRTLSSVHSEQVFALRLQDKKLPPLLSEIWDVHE
Briefly: LXR Gal4 reporter transient transfection assay, mammalian two-hybrid, FL-M2H Gal4β. The format is cell-based. Particulars: HEK293 cells; inverse agonist unless *. The method, boiled down: as §1

The nature of data set [2]: Pharmacokinetics in mice after single oral dosing, blood and liver exposure by LC-MS. Format: in vivo, mice (C57/bl6/J). The protocol: The pharmacokinetics of the compounds was assessed in mice after single dosing and oral administrations. Blood and liver exposure was measured via LC-MS.
The study design was as follows:
Animals: C57/bl6/J (Janvier) males Diet: standard rodent chow Dose: 20 mg/kg Animal handling: animals were withdrawn from food at least 12 h before administration Design: single dose oral administration, n=3 animals per group Sacrifice: at stated time point (4, 12 or 24 h) after administration Bioanalytics: LC-MS of liver and blood samples

The mark [3] stands for this setting: male, C57/bl6/J, mouse, liver/blood, single oral dose 20 mg/kg, time point 4 h, read-out: liver/blood ratio.
The mark [4] stands for this setting: single oral dose 20 mg/kg, time point 4 h.
[5] abbreviates: single oral dose 20 mg/kg, time point 12 h.

Each structure is given as a SMILES string. pEC50: −log10 of the molar value.

Regarding `Cc1ccc2ccccc2c1C(=O)N(Cc1ccc(-c2cccc(C(C)(C)C(=O)NO)c2)cc1)Cc1ccc(C(F)(F)F)o1` [5/3], the pEC50 (in data set [1]; on LXRα full length (FL); on LXRβ full length (FL)) was greater than 7.00 in each case. Also, the Kp at 4 h in data set [2] (setting [3]) turned out to be 7.6. The same compound yielded a blood/plasma exposure in data set [2] (setting [4]) of 0.08 µM. In addition, the liver exposure in data set [2] (setting [4]) amounted to 0.61 µM.

Take `Cc1cc(C)c(CN(Cc2ccc(-c3cncc(S(=O)(=O)CC(=O)O)c3)cc2)Cc2ccc(C(F)(F)F)o2)c(C)c1` [12/2]: the Kp at 12 h in data set [2] (male, C57/bl6/J, mouse, liver/blood, single oral dose 20 mg/kg, time point 12 h, read-out: liver/blood ratio) was 2.4. In data set [2] (setting [5]), the blood/plasma exposure is 0.34 µM and the liver exposure stood at 0.83 µM.

With `COC(=O)CS(=O)(=O)c1cccc(-c2ccc(CN(Cc3ccc(C(F)(F)F)o3)C(C)c3cccc4ccccc34)cc2)c1` (stereo not shown) [Example 6, Methyl 2-((4′-(((1-(naphthalen-1-yl)ethyl)((5-(trifluoromethyl)furan-2-yl)methyl)amino)methyl)-[1,1′-biphenyl]-3-yl)sulfonyl)acetate], the Kp at 4 h in data set [2] (setting [3]) amounted to 45. In data set [2] (setting [4]), this compound came in with a blood/plasma exposure of 0.20 µM and a liver exposure of 9.08 µM.

Take `Cc1ccc2ccccc2c1C(=O)N(Cc1ccc(-c2cccc(C(C)(C)c3noc(=O)[nH]3)c2)cc1)Cc1ccc(C(F)(F)F)o1` [Example 29, 2-Methyl-N-((3′-(2-(5-oxo-4,5-dihydro-1,2,4-oxadiazol-3-yl)propan-2-yl)-[1,1′-biphenyl]-4-yl)methyl)-N-((5-(trifluoromethyl)furan-2-yl)methy)-1-naphthamide]: the figures for the pEC50 (in data set [1]; on LXRα full length (FL); at LXRβ full length (FL)) were 6.00 to 7.00, greater than 7.00 and greater than 7.00, respectively.

In the case of `Cc1ccc2ccccc2c1C(=O)N(Cc1ccc(-c2cccc(S(=O)(=O)Cc3nnn[nH]3)c2)cc1)Cc1ccc(C(F)(F)F)o1` [Example 30, N-((3′-(((1H-Tetrazol-5-yl)methyl)sulfonyl)-1,1′-biphenyl-4-yl)methyl)-2-methyl-N-((5-(trifluoromethyl)furan-2-yl)methyl)-1-naphthamide], the pEC50 (in data set [1]; at LXRα full length (FL); on LXRβ full length (FL)) was 6.00 to 7.00 in each case.

Turning to `CCOC(=O)OC(OC(=O)C(C)(C)c1cccc(-c2ccc(CN(Cc3ccc(C(F)(F)F)o3)C(=O)c3c(C)ccc4ccccc34)cc2)c1)C(C)C` (stereo not shown) [Example 31, 1-((Ethoxycarbonyl)oxy)-2-methylpropyl 2-methyl-2-(4′-((2-methyl-N-((5-(trifluoromethyl)furan-2-yl)methyl)-1-naphthamido)methyl)-[1,1′-biphenyl]-3-yl)propanoate], the pEC50 was 5.00 to 6.00 in data set [1], greater than 7.00 at LXRα full length (FL) and greater than 7.00 at LXRβ full length (FL).

With `CNc1nc(-c2cccc(C(C)(C)C(=O)O)c2)ccc1CN(Cc1ccc(C(F)(F)F)o1)C(=O)c1c(C)ccc2ccccc12` [Example 32, 2-Methyl-2-(3-(5-((2-methyl-N-((5-(trifluoromethyl)furan-2-yl)methyl)-1-naphthamido)methyl)-6-(methylamino)pyridin-2-yl)phenyl)propanoic acid], the pEC50 was less than 5.00 in data set [1], 6.00 to 7.00 at LXRα full length (FL) and 6.00 to 7.00 on LXRβ full length (FL).

Take `Cc1nc2cccnc2c(C(=O)N(Cc2ccc(-c3cccc(C(C)(C)C(=O)O)c3)cc2)Cc2ccc(C#N)o2)c1C` [Example 33/1]: the results for the pEC50 (in data set [1]; at LXRα full length (FL); on LXRβ full length (FL)) were 6.00 to 7.00, greater than 7.00 and greater than 7.00, respectively.

In the case of `Cc1nc2ccc(=O)[nH]c2c(C(=O)N(Cc2ccc(-c3cccc(C(C)(C)C(=O)O)c3)cc2)Cc2ccc(C(F)(F)F)o2)c1C` [Example 36, 2-(4′-((2,3-Dimethyl-6-oxo-N-((5-(trifluoromethyl)furan-2-yl)methyl)-5,6-dihydro-1,5-naphthyridine-4-carboxamido)methyl)-[1,1′-biphenyl]-3-yl)-2-methylpropanoic acid], the pEC50 (in data set [1]; on LXRα full length (FL); on LXRβ full length (FL)) was 5.00 to 6.00 throughout.

With `CCOC(=O)c1ccc(CN(Cc2ccc(-c3cccc(S(C)(=O)=O)c3)cc2)S(=O)(=O)c2c(C)cc(C)cc2C)o1` [SR9238, reference compound], the oral bioavailability entry in data set [2] (single dose oral administration, 20 mg/kg) is “not orally bioavailable and hepatoselective”.

Usually pEC50 stands for the EC50 on a negative log10 scale, so that one unit is a factor of ten. Read a low pEC50 as a large EC50.
